# From patent EP4227307A1 (Genzyme Corporation, priority 2022, dated 2023)
# Structures can show the parent of a compound that is named as a salt.
# Target: T1, human recombinant 6His-Nterm SHP2 full-length (Thr2-Arg593) (Homo sapiens, UniProt Q06124)
# T1 construct: 6His-Nterm SHP2 full-length (Thr2-Arg593, R&D system); 6His (N); purchased R&D system
# T1 sequence (Q06124 2-593): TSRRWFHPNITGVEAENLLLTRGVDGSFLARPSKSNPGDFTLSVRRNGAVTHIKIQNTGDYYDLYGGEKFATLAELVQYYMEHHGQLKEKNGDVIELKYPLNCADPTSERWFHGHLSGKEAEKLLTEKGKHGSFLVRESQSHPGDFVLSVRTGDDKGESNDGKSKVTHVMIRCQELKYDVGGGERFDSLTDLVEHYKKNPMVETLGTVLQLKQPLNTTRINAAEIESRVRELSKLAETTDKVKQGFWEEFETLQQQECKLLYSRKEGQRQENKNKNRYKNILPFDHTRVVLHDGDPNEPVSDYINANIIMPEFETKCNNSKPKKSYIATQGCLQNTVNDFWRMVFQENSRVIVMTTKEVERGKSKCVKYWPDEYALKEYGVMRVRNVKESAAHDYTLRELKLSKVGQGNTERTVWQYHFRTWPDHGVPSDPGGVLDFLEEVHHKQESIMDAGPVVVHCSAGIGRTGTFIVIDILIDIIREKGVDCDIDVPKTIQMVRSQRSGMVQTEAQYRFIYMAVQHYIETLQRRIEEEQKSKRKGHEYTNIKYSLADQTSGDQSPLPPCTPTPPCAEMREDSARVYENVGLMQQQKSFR
# Experiment: SHP2 Phosphatase Assay (DiFMUP fluorescence)
# Assay type: biochemical
# Conditions: SHP2 0.2 nM pre-incubated with 100 nM bi-phosphorylated activating peptide; compound 1000-0.05 nM, 30 min pre-incubation; DiFMUP 20 µM, 45 min, room temperature; 10-concentration dose-response
# Method in brief: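 SHP2 (0.2 nM) preactivated ≥10 min with 100 nM bis-phosphorylated peptide, then 30 min with compound (10 concentrations, 1000–0.05 nM) at room temperature, pH 7.2 HEPES buffer with DTT. DiFMUP (20 µM, added solution) reacted 45 min, pervanadate-stopped; fluorescence 350/450 nm. IC50 by 4-parameter logistic fit.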
row,IC50,Compound
1,26 nM,"COc1nc2c(s1)[C@@H](N)C1(CCN(c3nc(C)c(-c4cnn(C)c4C)n4nccc34)CC1)C2 [Compound 220, (6S)-1'-[7-(1,5-Dimethylpyrazol-4-yl)-6-methyl-pyrazolo[1,5-a]pyrazin-4-yl]-2-methoxy-spiro[4,6-dihydrocyclopenta[d]thiazole-5,4'-piperidine]-6-amine]"
2,4 nM,"Cc1nccc(-c2c(C)nc(N3CCC4(CC3)Cc3ccncc3[C@H]4N)c3ccnn23)c1Cl [Compound 139, (7S)-1'-[7-(3-chloro-2-methyl-4-pyridyl)-6-methyl-pyrazolo[1,5-a]pyrazin-4-yl]spiro[5,7-dihydrocyclopenta[c]pyridine-6,4'-piperidine]-7-amine]"
3,370 nM,"Cc1nc(N2CCC3(CC2)Cc2ncccc2[C@H]3N)c2ccnn2c1-c1cncnc1 [Compound 165, (5S)-1'-(6-methyl-7-pyrimidin-5-yl-pyrazolo[1,5-a]pyrazin-4-yl)spiro[5,7-dihydrocyclopenta[b]pyridine-6,4'-piperidine]-5-amine]"
4,11 nM,"COc1cccc2c1CC1(CCN(c3nc(C)c(-c4ccnc(C)c4Cl)n4nccc34)CC1)[C@@H]2N [Compound 110, (1S)-1'-[7-(3-chloro-2-methyl-4-pyridyl)-6-methyl-pyrazolo[1,5-a]pyrazin-4-yl]-4-methoxy-spiro[indane-2,4'-piperidine]-1-amine]"
5,228 nM,"Cc1nc(N2CCC3(CC2)Cc2ncccc2[C@H]3N)c2cc(C(F)F)nn2c1-c1cnn(C)c1C [Compound 36, (5S)-1'-[2-(difluoromethyl)-7-(1,5-dimethylpyrazol-4-yl)-6-methyl-pyrazolo[1,5-a]pyrazin-4-yl]spiro[5,7-dihydrocyclopenta[b]pyridine-6,4'-piperidine]-5-amine]"
6,23 nM,"N[C@@H]1c2cccnc2CC12CCN(c1ncc(-c3cccc(F)c3F)n3nccc13)CC2 [Compound 26, (5S)-1'-[7-(2,3-difluorophenyl)pyrazolo[1,5-a]pyrazin-4-yl]spiro[5,7-dihydrocyclopenta[b]pyridine-6,4'-piperidine] -5-amine formate]"
7,> 1000 nM,"Cc1nc(N2CCC3(CC2)Cc2ncccc2[C@H]3N)c2c(C(F)F)cnn2c1-c1ccccc1 [Compound 146, (5S)-1'-[3-(difluoromethyl)-6-methyl-7-phenyl-pyrazolo [1,5-a]pyrazin-4-yl]spiro[5,7-dihydrocyclopenta[b]pyridine-6,4'-piperidine]-5-amine]"
8,6 nM,"COc1nccc(-c2c(C)nc(N3CCC4(CC3)Cc3ncccc3[C@H]4N)c3ccnn23)c1Cl [Compound 108, (5S)-1'-[7-(3-chloro-2-methoxy-4-pyridyl)-6-methyl-pyrazolo[1,5-a]pyrazin-4-yl]spiro[5,7-dihydrocyclopenta[b]pyridine-6,4'-piperidine]-5-amine]"
9,> 1000 nM,"Cc1nc(N2CCC3(CC2)Cc2ncccc2[C@H]3N)c2c(C(F)F)cnn2c1-c1ccccc1F [Compound 147, (5S)-1'-[3-(difluoromethyl)-7-(2-fluorophenyl)-6-methyl-pyrazolo[1,5-a]pyrazin-4-yl]spiro[5,7-dihydrocyclopenta[b]pyridine-6,4'-piperidine]-5-amine]"
10,39 nM,"Cc1nc(N2CCC3(CC2)Oc2ncccc2[C@H]3N)c2ccnn2c1-c1cccc(Cl)c1Cl [Compound 17, (3R)-1'-[7-(2,3-dichlorophenyl)-6-methyl-pyrazolo[1,5-a]pyrazin-4-yl]spiro[3H-furo[2,3-b]pyridine-2,4'-piperidine]-3-amine]"
11,16 nM,"Cc1nc(N2CCC3(CC2)Cc2ncccc2[C@H]3N)c2ccnn2c1-c1cccc(CO)c1 [Compound 191, [3-[6-methyl-4-[(5S)-5-aminospiro [5,7-dihydrocyclopenta[b]pyridine-6,4'-piperidine]-1'-yl]pyrazolo[1,5-a]pyrazin-7-yl]phenyl]methanol]"
12,15 nM,"COc1ccc(Cl)c(-c2c(C)nc(N3CCC4(CC3)Cc3ncccc3[C@H]4N)c3ccnn23)c1 [Compound 173, (5S)-1'-[7-(2-chloro-5-methoxy-phenyl)-6-methyl-pyrazolo[1,5-a]pyrazin-4-yl]spiro[5,7-dihydrocyclopenta[b]pyridine-6,4'-piperidine]-5-amine]"
13,9 nM,"Cc1ncc(-c2c(C)nc(N3CCC4(CC3)Cc3ncccc3[C@H]4N)c3ccnn23)s1 [Compound 152, (5S)-1'-[6-methyl-7-(2-methylthiazol-5-yl)pyrazolo [1,5-a]pyrazin-4-yl]spiro[5,7-dihydrocyclopenta[b]pyridine-6,4'-piperidine] -5-amine]"
14,9 nM,"Cc1nc(N2CCC3(CC2)Cc2ncccc2[C@H]3N)c2cc(CO)nn2c1-c1cccc(F)c1F [Compound 37, [4-[(5S)-5-aminospiro[5,7-dihydrocyclopenta[b]pyridine-6,4'-piperidine]-1'-yl]-7-(2,3-difluorophenyl)-6-methyl-pyrazolo[1,5-a]pyrazin-2-yl]methanol]"

row,Compound,IC50
1,"Cc1nc(N2CCC3(CC2)Cc2ncccc2[C@H]3N)c2ccnn2c1-c1ccc2nccnc2c1 [Compound 27, (5S)-1'-(6-methyl-7-quinoxalin-6-yl-pyrazolo[1,5-a]pyrazin-4-yl)spiro[5,7-dihydrocyclopenta[b]pyridine-6,4'-piperidine]-5-amine hydrochloride]",16 nM
2,"COc1ccc2c(c1)[C@@H](N)C1(CCN(c3nc(C)c(-c4ccnc(C)c4Cl)n4nccc34)CC1)C2 [Compound 10, (1S)-1'-[7-(3-chloro-2-methyl-4-pyridyl)-6-methyl-pyrazolo [1,5-a]pyrazin-4-yl]-6-methoxy-spiro[indane-2,4'-piperidine]-1-amine hydrochloride]",11 nM
3,"Cc1nc(N2CCC3(CC2)Cc2ncc(F)cc2[C@H]3N)c2ccnn2c1-c1ccc2nccnc2c1Cl [Compound 79, (5S)-1'-[7-(5-chloroquinoxalin-6-yl)-6-methyl-pyrazolo[1,5-a]pyrazin-4-yl]-3-fluoro-spiro[5,7-dihydrocyclopenta[b]pyridine-6,4'-piperidine]-5-amine hydrochloride]",10 nM
4,"Cc1nc(N2CCC3(CC2)Cc2ncccc2[C@H]3N)c2ccnn2c1-c1ccncc1Cl [Compound 100, (5S)-1'-[7-(3-chloro-4-pyridyl)-6-methyl-pyrazolo[1,5-a]pyrazin-4-yl]spiro[5,7-dihydrocyclopenta[b]pyridine-6,4'-piperidine]-5-amine hydrochloride]",13 nM
5,"Cc1nccc(-c2c(C)nc(N3CCC4(CC3)Cc3ncsc3[C@H]4N)c3ccnn23)c1Cl [Compound 73, (6S)-1'-[7-(3-chloro-2-methyl-4-pyridyl)-6-methyl-pyrazolo[1,5-a]pyrazin-4-yl]spiro[4,6-dihydrocyclopenta[d]thiazole-5,4'-piperidine]-6-amine hydrochloride]",5 nM
6,"COc1ccc2c(c1)[C@@H](N)C1(CCN(c3nc(C)c(-c4cccc(F)c4Cl)n4nccc34)CC1)C2 [Compound 9, (1S)-1'-[7-(2-chloro-3-fluorophenyl)-6-methyl-pyrazolo[1,5-a]pyrazin-4-yl]-6-methoxy-spiro[indane-2,4'-piperidine]-1-amine hydrochloride]",43 nM
7,"Cc1nccc(-c2c(C)nc(N3CCC4(CC3)Cc3nc(O)sc3[C@H]4N)c3ccnn23)c1Cl [Compound 218, (6S)-6-amino-1'-[7-(3-chloro-2-methyl-4-pyridyl)-6-methyl-pyrazolo[1,5-a]pyrazin-4-yl]spiro[4,6-dihydrocyclopenta[d]thiazole-5,4'-piperidine]-2-ol hydrochloride]",179 nM
8,"Cc1nc(N2CCC3(CC2)Cc2ncsc2[C@H]3N)c2ccnn2c1-c1ccccc1F [Compound 75, (6S)-1'-[7-(2-fluorophenyl)-6-methyl-pyrazolo[1,5-a]pyrazin-4-yl]spiro[4,6-dihydrocyclopenta[d]thiazole-5,4'-piperidine]-6-amine hydrochloride]",7 nM
9,"Cc1cc(-c2c(C)nc(N3CCC4(CC3)Cc3ncccc3[C@H]4N)c3ccnn23)cnn1 [Compound 124, (5S)-1'-[6-methyl-7-(6-methylpyridazin-4-yl)pyrazolo[1,5-a]pyrazin-4-yl]spiro[5,7-dihydrocyclopenta[b]pyridine-6,4'-piperidine]-5-amine hydrochloride]",391 nM
10,"Cc1nc(-c2c(C)nc(N3CCC4(CC3)Cc3ncccc3[C@H]4N)c3ccnn23)cs1 [Compound 158, (5S)-1'-[6-methyl-7-(2-methylthiazol-4-yl)pyrazolo[1,5-a]pyrazin-4-yl]spiro[5,7-dihydrocyclopenta[b]pyridine-6,4'-piperidine] -5-amine hydrochloride]",47 nM
11,"Cc1nc(N2CCC3(CC2)Cc2c(F)cccc2[C@H]3N)c2ccnn2c1-c1ccccc1F [Compound 64, (1S)-4-Fluoro-1'-[7-(2-fluorophenyl)-6-methyl-pyrazolo[1,5-a]pyrazin-4-yl]spiro[indane-2,4'-piperidine]-1-amine hydrochloride]",46 nM
